{"source": "patent US9049858B2", "about": "“Pest controlling composition and method for controlling pest” (SUMITOMO CHEMICAL COMPANY, LIMITED, priority 2010, dated 2015)", "tested_on": "gray mold fungus (Botrytis cinerea)", "test": "Cucumber leaf disk preventive test against gray mold fungus", "type": "in vivo", "conditions": "15° C., six days", "experimental": "True leaf of cucumber was punched out with cork borer to 13 mm in diameter to prepare a leaf disk. In 24 well microwell plate that was dispensed with 1 ml 0.8% water agar, the leaf disk was placed such that the upper side of the leaf was in an upward direction. […] Control where 20 micro liter ion-exchange water was spread was prepared (for non-treated group). After confirming that the spray solution was dried, conidium of gray mold fungus (Botrytis cinerea) was suspended into potato dextrose broth (DIFCO) in a density, of about 10^5 conidia/mL and was then subjected to a spray inoculation. After leaving to stand the leaf disk in a growth chamber set up at 15° C. for six days, an onset area on each leaf was measured and a preventive value was then calculated by the following equation 1.\nThe same above operations were carried out using spinetoram or spinosad instead of abamectin, so as to obtain the respective preventive values. Preventive value(%)=100×(A−B)/A (Equation 1)\nA: an onset area rate of plant belonging to non-treated group\nB: an onset area rate of plant belonging to treated group onset area rate=(onset area of the leaf disk)/(the total area of the leaf disk)\nThe same above operations as described in Test Examples 1 to 6 were carried out using emamectin-benzoate, lepimectin or milbemectin instead of abamectin, so as to obtain the respective preventive values. […]", "data": [{"molecule": "CNC(=O)C(OC)c1ccccc1COc1cc(C)ccc1C", "note": "(centres unmarked) [the present amide compound]", "values": [{"measurement": "preventive value (%)", "setting": "the present amide compound alone 1.0 ppm (dimethyl sulfoxide solution)", "result": 46, "unit": "%"}, {"measurement": "preventive value (%)", "setting": "the present amide compound alone 2.5 ppm (dimethyl sulfoxide solution)", "result": 56, "unit": "%"}]}]}
